According to patent publication US20040166137A1, “Hetero-substituted benzimidazole compounds and antiviral uses thereof” (priority 2002, published 2004):

Tests used:
rhinoviruses = conditions: cited from earlier work
[1] = XTT cytotoxicity assay on uninfected Hep2 cells; type: cell-based; conditions: human
Experimental: Uninfected confluent monolayers (seeded at 2.2×10^4 cells/well) of Hep2 cells were grown in microtiter wells (96-well plates) in EMEM (Eagle Minimum Essential Medium w/o L-glutamine [Bio Whittaker Cat. No. 12-125F] with 3% fetal bovine serum (FBS; which had been heat inactivated for 30 minutes at 56° C.; Bio Whittaker Cat. No. 14-501F), antibiotics (penicillin/streptomycin; Bio Whittaker Cat. No. 17-602E) added at 1%, and glutamine added at 1% (complete EMEM). The plates were incubated for 24 hours and used for antiviral assays and cytotoxicity assays.
Cytotoxicity assays were conducted by first removing all medium from the well containing uninfected Hep2 cells, adding 100 μl complete EMEM, and then adding hetero-substituted benzimidazole compounds (eight 3-fold dilutions with 100 μM concentration as the highest final concentration). Complete EMEM (50 μl) was added to each well instead of virus and the plates were incubated in a CO2 incubator at 37° C. for 48 hours.
At 48 hours, the cytotoxicity assays were developed by adding to each well 50 μl of XTT (1 mg/ml in PBS) containing 0.01-0.02 mM of the electron coupling agent phenazine methosulfate (PMS). The plates were incubated for 2-4 hours at 37° C. and then read in a 96-well plate reader at 450 nm. Plotting the % average OD of treated wells compared to the cell control vs. compound concentration generated dose response curves. CC50 (50% inhibitory cytotoxic concentration) values for each compound were then calculated from these curves. […]

RSV = assay: Antiviral assay (PRA): inhibition of RSV syncytial plaque formation on Hep2 cell monolayers; type: cell-based; conditions: human respiratory syncytial virus, HEp-2; Table 2; RSV-infected Hep2 cells, 48 hours, syncytia counted; read-out: PRA (IC50)
Experimental: The lower the observed level of fusion, the greater the antiviral activity of the compound was determined to be. Uninfected confluent monolayers (seeded at 2.2×10^4 cells/well) of Hep2 cells were grown in microtiter wells (96-well plates) in EMEM (Eagle Minimum Essential Medium w/o L-glutamine [Bio Whittaker Cat. […] Bio Whittaker Cat. No. 14-[…]), antibiotics (penicillin/streptomycin; Bio Whittaker Cat. […] The plates were incubated for 24 hours and used for antiviral assays and cytotoxicity assays. To prepare Hep2 cells for addition to uninfected cells, cultures of […] infected Hep2 cells were washed with DPBS (Dulbecco's Phosphate Buffered Saline w/o calcium or magnesium; Bio Whittaker Cat. […] Gibco Life Technologies Cat. No. 15040-017). The cells were spun for 10 minutes and resuspended in 3% FBS. Cell counts were performed using a hemacytometer. Persistent cells were added to the uninfected Hep2 cells. The antiviral assay was conducted by first removing all medium from the wells containing uninfected Hep2 cells, adding 100 μl complete EMEM, then adding hetero-substituted benzimidazole compounds (eight 3-fold dilutions with 20 μM concentration as the highest final concentration) in 50 μl complete EMEM. Approximately 50 […] plaque forming units (PFU) of RSV in 50 μl was added per well and the plates were incubated in a CO2 incubator at 37° C. for 48 hours. Each plate contained uninfected control wells and infected untreated control wells for calculation of % inhibition (EC50) for each concentration. After incubation, cells in control wells were checked for fusion centers, medium was removed from the wells followed by addition to each well of either Crystal Violet stain or XTT. With respect to Crystal Violet, approximately 50μl 0.25% Crystal Violet stain in methanol was added to each well. The wells were rinsed immediately, to remove excess stain, and were allowed to dry. The number of syncytia per well were then counted, using a dissecting microscope. For antiviral assays at 48 hours post infection, cells in control wells were checked for syncytial plaques. Medium was removed from the wells followed by addition of approximately 50 Al Crystal Violet stain (0.25% Crystal Violet, 0.25% Giemsa dissolved in 10% formaldehyde, 70% methanol, and 20% H2O). The wells were incubated at room temperature for 5 minutes, rinsed with H2O to remove excess stain, and allowed to dry. The number of syncytia per well were counted using a dissecting microscope. The 50% inhibitory concentration (EC50) for each compound was calculated from the dose response curve. The compounds listed in Tables 1-2 have been screened for inhibitory activity against RSV.

Row | IC50 (RSV) | Structure (SMILES) | inhibition of the cytopathic effect (rhinoviruses) | CC50 at 48 h [1]
1 |  | COc1ccc2nc[nH]c2c1 [5-methoxybenzimidazole] | 100% | 
2 | 200 nM | Cc1nn(C)c(Cl)c1S(=O)(=O)N1CCN(Cc2nc3cccnc3n2Cc2nc3ccccc3[nH]2)CC1 [compound 29, 3-(1H-Benzoimidazol-2-ylmethyl)-2-[4-(5-chloro-1,3-dimethyl-1H-pyrazole-4-sulfonyl)-piperazin-1-ylmethyl]-3H-imidazo[4,5-b]pyridine] |  | ≥ 100000 nM
3 | 10 nM | O=S(=O)(c1ccc(F)cc1F)N1CCN(Cc2nc3cccnc3n2Cc2nc3ccccc3[nH]2)CC1 [compound 30, 3-(1H-Benzoimidazol-2-ylmethyl)-2-[4-(2,4-difluoro-benzenesulfonyl)-piperazin-1-ylmethyl]-3H-imidazo[4,5-b]pyridine] |  | ≥ 100000 nM
4 | 10 nM | O=S(=O)(c1ccsc1)N1CCN(Cc2nc3cccnc3n2Cc2nc3ccccc3[nH]2)CC1 [compound 31, 3-(1H-Benzoimidazol-2-ylmethyl)-2-[4-(thiophene-3-sulfonyl)-piperazin-1-ylmethyl]-3H-imidazo[4,5-b]pyridine] |  | ≥ 100000 nM
